Data published in patent US10882859B2, “Kinase inhibitors” (Topivert Pharma Limited, priority 2015, dated 2021).
≈ marks a conversion by molar mass, not a printed value. Like-named read-outs stand apart in the source and are kept apart here.

Tests used:
[1] = Systemic pharmacokinetics and total colon tissue distribution after single oral administration; format: in vivo, male C57BL/6 mice; details: mice, oral 10 mg/kg; for concentration at 0.5 h / concentration at 1 h / concentration at 2 h / concentration at 4 h / concentration at 6 h / concentration at 8 h / concentration at 12 h / concentration at 24 h: male, C57BL/6, mouse
Procedure: Studies were conducted by Sai Life Sciences (Hinjewadi, Pune, India) to investigate the systemic pharmacokinetics and total colon tissue distribution of compounds of the invention following a single oral administration in male C57BL/6 mice.
A group of twenty four male mice were administered with a solution of test compound formulated at a dose of 10 mg/10 mL/kg in aqueous hydroxypropyl-β-cyclodextrin (20% w/v in water). Blood samples ([…]) were collected from retro-orbital plexus of each mouse under light isoflurane anaesthesia such that the samples were obtained at 0.5, 1, 2, 4, 6, 8, 12 and 24 hr. The blood samples were collected from a set of three mice at each time point in a labeled micro centrifuge tube containing K2EDTA as anticoagulant. Plasma samples were separated by centrifugation at 4000 rpm for 10 min and stored below −70° C. until bioanalysis. After collection of blood sample, animals were humanely euthanized by carbon dioxide asphyxiation to collect total colon tissues. The colons were flushed with cold PBS (pH7.4) to remove contents. The total colon tissues were homogenized with cold PBS (pH7.4) of twice the weight of colon tissue and stored below −70° C. Total volume was three times the total colon tissue weights. All samples were processed for analysis by protein precipitation using acetonitrile and analyzed with a fit-for-purpose LC-MS/MS method. Pharmacokinetic parameters were calculated using the non-compartmental analysis tool of Phoenix WinNonlin® (Version 6.3).

JAK2 = JAK2 (Homo sapiens (Human), UniProt O60674); experiment: KINOMEscan enzyme binding assay (DiscoveRx), JAK2; details: read-out: Dissociation Constant JAK2
JAK2, sequence (O60674 whole entry): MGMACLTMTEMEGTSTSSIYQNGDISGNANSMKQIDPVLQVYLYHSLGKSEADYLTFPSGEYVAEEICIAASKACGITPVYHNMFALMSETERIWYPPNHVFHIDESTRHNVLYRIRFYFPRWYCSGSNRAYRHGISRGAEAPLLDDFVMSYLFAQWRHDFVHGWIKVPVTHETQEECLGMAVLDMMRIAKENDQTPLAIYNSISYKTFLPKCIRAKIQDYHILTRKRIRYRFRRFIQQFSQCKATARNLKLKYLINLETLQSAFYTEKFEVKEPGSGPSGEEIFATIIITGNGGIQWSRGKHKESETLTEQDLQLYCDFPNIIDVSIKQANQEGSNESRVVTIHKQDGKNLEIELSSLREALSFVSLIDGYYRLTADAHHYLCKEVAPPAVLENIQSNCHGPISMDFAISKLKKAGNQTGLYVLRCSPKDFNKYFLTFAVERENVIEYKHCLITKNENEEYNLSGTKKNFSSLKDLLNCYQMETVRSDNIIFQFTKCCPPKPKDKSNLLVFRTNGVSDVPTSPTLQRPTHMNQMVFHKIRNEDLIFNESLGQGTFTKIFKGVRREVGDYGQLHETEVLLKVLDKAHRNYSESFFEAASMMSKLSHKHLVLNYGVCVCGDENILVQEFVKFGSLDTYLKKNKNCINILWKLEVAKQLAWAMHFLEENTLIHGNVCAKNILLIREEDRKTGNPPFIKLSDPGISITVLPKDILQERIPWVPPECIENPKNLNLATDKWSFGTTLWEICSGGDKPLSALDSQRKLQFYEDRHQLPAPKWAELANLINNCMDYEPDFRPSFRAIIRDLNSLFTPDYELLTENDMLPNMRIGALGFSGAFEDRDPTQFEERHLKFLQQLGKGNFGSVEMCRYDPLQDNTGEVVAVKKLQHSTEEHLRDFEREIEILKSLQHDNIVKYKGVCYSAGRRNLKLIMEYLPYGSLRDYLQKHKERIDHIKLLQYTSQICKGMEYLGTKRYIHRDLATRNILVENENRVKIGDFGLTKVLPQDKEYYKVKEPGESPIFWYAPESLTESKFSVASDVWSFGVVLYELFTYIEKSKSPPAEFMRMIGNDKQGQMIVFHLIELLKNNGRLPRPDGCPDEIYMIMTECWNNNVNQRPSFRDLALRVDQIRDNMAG
Procedure: (§1) These assays may be conducted by DiscoveRx (formerly Ambit; San Diego, Calif.). The percentage inhibition produced by incubation with a test compound may be calculated relative to the non-inhibited control.

JAK1 = JAK1 (Homo sapiens (Human), UniProt P23458); experiment: KINOMEscan enzyme binding assay (DiscoveRx), JAK1; details: read-out: Dissociation Constant JAK1
JAK1, sequence (P23458 whole entry): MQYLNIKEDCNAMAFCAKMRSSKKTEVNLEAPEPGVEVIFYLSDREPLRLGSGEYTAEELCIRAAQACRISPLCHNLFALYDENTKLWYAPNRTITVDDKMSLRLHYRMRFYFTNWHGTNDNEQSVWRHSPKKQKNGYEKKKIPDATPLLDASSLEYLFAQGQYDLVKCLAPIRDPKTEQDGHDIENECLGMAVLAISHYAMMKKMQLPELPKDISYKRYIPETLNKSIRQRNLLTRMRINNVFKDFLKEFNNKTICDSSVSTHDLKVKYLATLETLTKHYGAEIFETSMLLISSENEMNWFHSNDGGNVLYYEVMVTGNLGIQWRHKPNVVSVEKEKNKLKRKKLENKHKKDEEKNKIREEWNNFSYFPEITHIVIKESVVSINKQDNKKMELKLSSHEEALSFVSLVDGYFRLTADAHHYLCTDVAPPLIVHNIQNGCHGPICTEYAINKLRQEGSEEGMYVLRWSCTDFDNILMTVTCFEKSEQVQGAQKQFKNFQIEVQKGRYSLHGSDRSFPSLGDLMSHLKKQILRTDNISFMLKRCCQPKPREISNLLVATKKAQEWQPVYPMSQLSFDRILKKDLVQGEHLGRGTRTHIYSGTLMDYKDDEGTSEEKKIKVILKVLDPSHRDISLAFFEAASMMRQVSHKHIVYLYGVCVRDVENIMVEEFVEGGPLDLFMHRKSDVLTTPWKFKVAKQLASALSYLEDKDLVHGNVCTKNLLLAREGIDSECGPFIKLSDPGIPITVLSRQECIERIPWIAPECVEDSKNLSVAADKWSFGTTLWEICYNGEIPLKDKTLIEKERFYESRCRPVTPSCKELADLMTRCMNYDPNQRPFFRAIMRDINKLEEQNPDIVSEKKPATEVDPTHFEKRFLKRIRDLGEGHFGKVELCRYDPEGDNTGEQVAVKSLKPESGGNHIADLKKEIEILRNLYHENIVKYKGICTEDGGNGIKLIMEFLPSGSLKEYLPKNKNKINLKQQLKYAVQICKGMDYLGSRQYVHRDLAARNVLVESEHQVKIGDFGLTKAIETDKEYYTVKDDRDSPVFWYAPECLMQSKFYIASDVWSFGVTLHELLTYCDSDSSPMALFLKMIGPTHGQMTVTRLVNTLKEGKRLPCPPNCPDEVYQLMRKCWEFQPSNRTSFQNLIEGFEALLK
Procedure: as §1

TYK2 = TYK2 (Homo sapiens (Human), UniProt P29597); experiment: KINOMEscan enzyme binding assay (DiscoveRx), TYK2; details: read-out: Dissociation Constant TYK2
TYK2, sequence (P29597 whole entry): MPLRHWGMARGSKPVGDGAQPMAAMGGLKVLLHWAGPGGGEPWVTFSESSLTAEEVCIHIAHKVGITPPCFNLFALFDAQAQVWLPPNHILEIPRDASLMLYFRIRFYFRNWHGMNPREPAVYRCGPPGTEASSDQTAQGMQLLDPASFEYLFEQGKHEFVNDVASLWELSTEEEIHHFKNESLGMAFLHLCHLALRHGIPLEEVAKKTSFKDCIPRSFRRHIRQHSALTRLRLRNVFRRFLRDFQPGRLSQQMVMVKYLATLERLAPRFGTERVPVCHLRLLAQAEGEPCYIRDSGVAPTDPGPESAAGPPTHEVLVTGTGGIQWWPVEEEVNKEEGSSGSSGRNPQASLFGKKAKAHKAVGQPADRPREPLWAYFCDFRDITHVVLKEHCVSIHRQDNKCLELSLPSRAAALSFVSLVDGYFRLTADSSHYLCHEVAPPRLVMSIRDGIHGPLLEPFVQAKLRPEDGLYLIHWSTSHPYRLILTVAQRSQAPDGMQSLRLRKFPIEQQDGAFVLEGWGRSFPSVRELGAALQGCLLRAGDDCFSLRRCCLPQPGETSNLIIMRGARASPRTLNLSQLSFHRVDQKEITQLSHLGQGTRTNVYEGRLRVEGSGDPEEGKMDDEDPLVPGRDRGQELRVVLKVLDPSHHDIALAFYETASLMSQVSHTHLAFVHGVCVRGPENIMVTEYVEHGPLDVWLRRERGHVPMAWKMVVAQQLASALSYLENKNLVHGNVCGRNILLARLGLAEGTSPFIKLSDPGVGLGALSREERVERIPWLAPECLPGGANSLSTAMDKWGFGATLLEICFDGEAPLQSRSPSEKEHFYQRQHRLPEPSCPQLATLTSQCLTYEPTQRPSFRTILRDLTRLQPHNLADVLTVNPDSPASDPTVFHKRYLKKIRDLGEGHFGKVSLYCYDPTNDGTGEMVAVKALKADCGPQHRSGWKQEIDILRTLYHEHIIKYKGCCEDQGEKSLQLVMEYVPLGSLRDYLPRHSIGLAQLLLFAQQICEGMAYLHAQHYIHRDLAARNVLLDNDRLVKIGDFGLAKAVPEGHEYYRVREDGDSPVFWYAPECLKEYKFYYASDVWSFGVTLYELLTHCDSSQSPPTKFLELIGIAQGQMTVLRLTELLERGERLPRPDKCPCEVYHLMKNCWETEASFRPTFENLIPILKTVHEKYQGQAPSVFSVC
Procedure: as §1

Jurkat cells = experiment: Cell cytotoxicity assay (propidium iodide, flow cytometry); format: cell-based, human; details: 24 h
Procedure: 1×10^5 Jurkat cells (immortalised human T lymphocytes) are added to the appropriate number of wells of a 96 well plate in 100 μL of media (RPMI supplemented with 10% foetal bovine serum). 1 μL of DMSO control (final concentration 1.0% v/v) or test compound (final concentration 20, 5 or 1 μg/mL) is added to the wells and incubated at 37° C., 5% CO2. After 24 hours, the plate is centrifuged at 1200 rpm for 3 minutes and the supernatant discarded. Cells are then resuspended in 150 μL (final concentration 7.5 μg/mL) of propidium iodide (PI) in PBS and incubated at 37° C., 5% CO2 for 15 minutes. After 15 minutes, cells are analysed by flow cytometry (BD accuri) using the FL3 window. The % viability is calculated as the % of cells that are PI negative in the test wells normalised to the DMSO control.

[2] = system: CD3/IL2 stimulated PBMC cells; experiment: IFNγ release from CD3/IL2 stimulated PBMC cells; format: cell-based; details: Homo sapiens, CD3/IL2 stimulation, 48 h, ELISA
Procedure: PBMCs from healthy subjects are separated from whole blood using a density gradient (Lymphoprep, Axis-Shield Healthcare). Cells are added to a 96 well plate, and compound at the desired concentration added 2 hours prior to stimulation with a mixture of monoclonal antibody to CD3 (1 μg/ml, eBioscience) and human recombinant IL2 (10 ng/ml, Peprotech). After 48 hours incubation under normal tissue culture conditions, supernatants are collected and IFNγ release determined by Sandwich ELISA (Duo-set, R&D System). The IC50 is determined from the dose response curve.

JAK3 = JAK3 (Homo sapiens (Human), UniProt P52333); experiment: KINOMEscan enzyme binding assay (DiscoveRx), JAK3; details: read-out: Dissociation Constant JAK3
JAK3, sequence (P52333 whole entry): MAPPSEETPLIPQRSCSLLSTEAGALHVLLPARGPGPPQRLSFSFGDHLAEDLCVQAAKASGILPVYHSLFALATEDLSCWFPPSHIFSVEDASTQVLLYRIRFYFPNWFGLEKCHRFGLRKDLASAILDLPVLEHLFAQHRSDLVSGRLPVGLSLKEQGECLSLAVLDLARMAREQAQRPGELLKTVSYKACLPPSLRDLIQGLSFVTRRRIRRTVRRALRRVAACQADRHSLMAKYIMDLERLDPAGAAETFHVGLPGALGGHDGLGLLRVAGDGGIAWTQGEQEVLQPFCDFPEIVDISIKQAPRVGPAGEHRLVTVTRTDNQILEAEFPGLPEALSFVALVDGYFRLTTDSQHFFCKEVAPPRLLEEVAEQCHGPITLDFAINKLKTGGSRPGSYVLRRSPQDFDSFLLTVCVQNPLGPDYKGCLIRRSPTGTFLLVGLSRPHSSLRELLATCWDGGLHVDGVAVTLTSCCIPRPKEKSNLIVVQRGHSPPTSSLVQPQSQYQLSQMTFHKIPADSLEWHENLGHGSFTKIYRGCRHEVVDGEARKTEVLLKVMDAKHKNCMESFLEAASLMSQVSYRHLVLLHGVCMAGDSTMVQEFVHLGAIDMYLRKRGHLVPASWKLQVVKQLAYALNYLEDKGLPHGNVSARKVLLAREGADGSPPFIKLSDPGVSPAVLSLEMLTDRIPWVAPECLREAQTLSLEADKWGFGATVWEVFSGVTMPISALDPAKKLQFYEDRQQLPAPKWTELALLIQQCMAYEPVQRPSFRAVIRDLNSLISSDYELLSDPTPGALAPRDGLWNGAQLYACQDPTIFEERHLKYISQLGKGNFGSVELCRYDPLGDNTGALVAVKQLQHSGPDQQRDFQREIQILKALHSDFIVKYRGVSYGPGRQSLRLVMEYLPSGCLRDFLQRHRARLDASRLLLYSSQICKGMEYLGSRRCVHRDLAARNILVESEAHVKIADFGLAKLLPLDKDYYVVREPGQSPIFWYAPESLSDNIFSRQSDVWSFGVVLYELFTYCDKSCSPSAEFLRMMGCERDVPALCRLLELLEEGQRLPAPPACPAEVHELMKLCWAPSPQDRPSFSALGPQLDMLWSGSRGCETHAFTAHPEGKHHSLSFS
Procedure: as §1

[3] = Solubility in fasted-state simulated colonic fluid (FaSSCoF); format: physicochemical; details: 25 °C, pH 6.5, fassgf or other biorelevant, thermodynamic from solid, pH 6.5, 25° C.
Procedure: The solubilities of compounds of the invention in FaSSCoF at pH 6.5 are determined using a modification of a previously-reported procedure (Vertzoni, M., et al. Pharm. Res. 2010, 27, 2187-2196). In place of the bile salt extract employed in the original procedure (which extract is no longer available), the modified procedure uses a mixture of sodium taurochlorate (0.15 g), glycocholic acid (0.15 g), ursodeoxycholic acid (0.05 g), cholic acid (0.05 g), and glycodeoxycholic acid (0.05 g). These five bile acids are ground together with a mortar and pestle to produce a fine white powder that is incorporated into the FaSSCoF, as outlined below.
FaSSCoF medium: Tris(hydroxymethyl)aminomethane (Tris; 0.275 g) and maleic acid (0.44 g) are dissolved in water (35 mL) to give a solution whose pH is adjusted to 6.5 by treatment with 0.5M NaOH (ca. 12 mL). The solution is then made up to 50 mL with water. A portion of this Tris/maleate buffer solution (ca. 25 mL) is added to a 0.5 L round-bottomed flask, before being treated with 0.00565 g of the bile acid mixture described above. Solutions of phosphatidylcholine (0.0111 g) in DCM (0.15 mL) and palmitic acid (0.0013 g) in DCM (0.15 mL) are added, then the organic solvent is evaporated off under reduced pressure at 40° C. until a clear solution, with no perceptible DCM odour, is achieved. The volume of the evaporated solution is adjusted to 50 mL by addition of the remainder of Tris/maleate buffer, then BSA (0.115 g) is added, before being dissolved by gentle agitation.
Solubility Determination: Test compounds are suspended in the pH 6.5 FaSSCoF medium to give a maximum final concentration of 2-10 mg/mL. The suspensions are equilibrated at 25° C. for 24 h, before being filtered through a glass fibre C filter. The filtrates are then diluted as appropriate for injection and quantification by HPLC with reference to a standard. Different volumes of the standard, diluted and undiluted sample solutions are injected and the solubilities are calculated using the peak areas determined by integration of the peak found at the same retention time as the principal peak in the standard injection.

[4] = total colon tissue, total colon, read-out: Mean total colon level
[5] = plasma, read-out: Mean plasma concentration

concentration at 0.5 h [1, 4]: 327 ng/g
concentration at 1 h [1, 4]: 984 ng/g
concentration at 2 h [1, 4]: 19700 ng/g
concentration at 4 h [1, 4]: 4690 ng/g
concentration at 6 h [1, 4]: 8440 ng/g
concentration at 8 h [1, 4]: 11900 ng/g
concentration at 12 h [1, 4]: 4790 ng/g
concentration at 24 h [1, 4]: 350 ng/g
concentration at 0.5 h [1, 5]: 6.1 ng/mL
concentration at 1 h [1, 5]: 1.8 ng/mL
concentration at 2 h [1, 5]: 1.9 ng/mL
concentration at 4 h [1, 5]: 0 ng/mL
concentration at 6 h [1, 5]: 0 ng/mL
concentration at 8 h [1, 5]: 0 ng/mL
concentration at 12 h [1, 5]: 0 ng/mL
concentration at 24 h [1, 5]: 0 ng/mL
Systemic plasma exposure ([1]; plasma): very low
Colonic exposure AUC0-24 h ([1]; total colon): 132,979 h·ng/g
Kd (JAK2): 0.052 nM
Kd (JAK1): 0.62 nM
Kd (TYK2): 0.11 nM
Kd (JAK3): 0.098 nM
solubility thermodynamic at 24 h ([3]; Run 1, read-out: pH 6.5 FaSSCoF Solubility, Run 1): 40 µg/mL (≈ 81.5 µM)
solubility thermodynamic at 24 h ([3]; Run 2, read-out: pH 6.5 FaSSCoF Solubility, Run 2): 20 µg/mL (≈ 40.8 µM)
SMILES: CCc1cc(O)c(F)cc1-c1ccc2c(-c3nc4c([nH]3)CCN(C(=O)N3CCOCC3)C4)n[nH]c2c1 [Example 1, (2-(6-(2-Ethyl-5-fluoro-4-hydroxyphenyl)-1H-indazol-3-yl)-1,4,6,7-tetrahydro-5H-imidazo[4,5-c]pyridin-5-yl)(morpholino)methanone]
% viability at 1 μg/mL (Jurkat cells): 40%
IC50 [2]: 3.6 nM
